The nature of series [1]: Phase 1 single-dose administration study: plasma concentration of Compound (2) by LC/MS/MS after oral Compound (1). The settings on record: Compound (1) 200 mg C-SEDDS single oral dose. The class given is in vivo, human.
The nature of series [2]: Repeated Administration Study 1: L-SEDDS 400 mg once daily for 10 days, plasma Compound (2). The class given is in vivo, human. The procedure: (§1) This clinical trial was a single-center, randomized, double-blind, placebo-controlled, single and multiple ascending dose study with the primary objective of evaluating the safety and tolerability of Compound (1) when orally administered to healthy adult males.
(§2) Screening tests were conducted within 28 to 3 days before administration of the investigational drug to confirm the eligibility of the subjects, and the subjects were hospitalized 2 days before administration. After hospitalization, tests were conducted from 2 days before administration to the day of administration to confirm that there were no problems with eligibility, and then Compound (1) or placebo was randomly assigned. The subjects in each cohort consisted of 8 people, of which 6 were assigned to Compound (1) and 2 were assigned to placebo, and they were administered the drug.
(§3) Day 8, when repeated administration was started, corresponds to administration day 1 (Day 1), and day 17 corresponds to administration day 10 (Day 10). […]
(§4) The plasma concentration of Compound (2) was measured using a validated measurement method. Specifically, plasma was separated from collected blood and processed, and then the plasma concentration was measured by an LC/MS/MS apparatus.
(§5) For twice-daily administration of C-SEDDS, blood was further collected at 13, 14, 14.5, and 16 hours later to quantify Compound (2).

A short description of series [3]: Repeated Administration Study 2: C-SEDDS 200 mg twice daily for 10 days, plasma Compound (2). The class given is in vivo, human. The procedure:
as §1, §2, §3, §4, §5

Series [4] is described as follows: PK Simulation Analysis 1 by Superposition Method (Phoenix WinNonlin NPS). The arrangement: species or system human. As to conditions: Compound (1) 50 mg; 2.5 times the 20 mg prediction. An excerpt:
The plasma concentration profile of Compound (2) on day 10 of repeated administration was predicted using the superposition method implemented in the Nonparametric Superposition (NPS) tool of the analysis software Phoenix WinNonlin, applying the single-dose results (Certara L.P.) (FIG. 4).

Series [5] is described as follows: PK Simulation Analysis 2 by Superposition Method (200 mg twice daily). The arrangement: species or system human. The settings on record: Day 10 of repeated administration. Here is the method: The plasma concentration of Compound (2) on day 10 of repeated administration at 200 mg twice daily (every 12 hours) was predicted using the superposition method implemented in the Nonparametric Superposition (NPS) tool of the analysis software Phoenix WinNonlin, applying the results of once-daily administration at 200 mg (Certara L.P.) (FIG. 6).

In series [6] the target is T1, MAdCAM-1 binding of lymphocytes (CD3-positive CD4-positive cells) (Homo sapiens, UniProt P13612+P26010).
T1 construct: endogenous in cells; host or cells: CD3-positive CD4-positive lymphocytes in heparinized whole blood of dosed healthy adult males
T1 sequence (P13612 34-1032): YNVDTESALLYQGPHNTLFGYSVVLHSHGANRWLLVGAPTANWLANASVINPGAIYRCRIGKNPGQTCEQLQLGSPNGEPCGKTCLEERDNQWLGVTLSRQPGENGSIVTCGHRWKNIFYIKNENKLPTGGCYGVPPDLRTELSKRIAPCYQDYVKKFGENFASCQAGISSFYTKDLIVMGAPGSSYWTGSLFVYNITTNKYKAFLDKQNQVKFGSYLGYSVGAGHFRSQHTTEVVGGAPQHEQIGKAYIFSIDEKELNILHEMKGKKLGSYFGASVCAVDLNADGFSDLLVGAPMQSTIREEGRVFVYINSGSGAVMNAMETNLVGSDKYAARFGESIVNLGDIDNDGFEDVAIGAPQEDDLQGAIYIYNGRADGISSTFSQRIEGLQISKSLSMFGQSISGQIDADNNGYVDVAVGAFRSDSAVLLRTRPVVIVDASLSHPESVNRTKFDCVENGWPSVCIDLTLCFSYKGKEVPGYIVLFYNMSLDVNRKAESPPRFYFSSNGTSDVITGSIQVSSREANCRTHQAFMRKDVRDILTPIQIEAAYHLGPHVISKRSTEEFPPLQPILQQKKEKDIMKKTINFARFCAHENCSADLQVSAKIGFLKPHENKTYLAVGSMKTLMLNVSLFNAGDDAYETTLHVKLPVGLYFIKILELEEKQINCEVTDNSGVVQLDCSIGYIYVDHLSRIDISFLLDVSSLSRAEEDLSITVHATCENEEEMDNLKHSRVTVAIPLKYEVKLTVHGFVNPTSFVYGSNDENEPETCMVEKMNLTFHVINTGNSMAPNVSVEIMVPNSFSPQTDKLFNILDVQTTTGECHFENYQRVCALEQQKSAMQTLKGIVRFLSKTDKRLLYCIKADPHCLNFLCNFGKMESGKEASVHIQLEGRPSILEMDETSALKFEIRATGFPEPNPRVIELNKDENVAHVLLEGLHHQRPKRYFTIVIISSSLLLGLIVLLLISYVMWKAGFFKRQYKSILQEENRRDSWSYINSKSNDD
T1 sequence (P26010 20-798): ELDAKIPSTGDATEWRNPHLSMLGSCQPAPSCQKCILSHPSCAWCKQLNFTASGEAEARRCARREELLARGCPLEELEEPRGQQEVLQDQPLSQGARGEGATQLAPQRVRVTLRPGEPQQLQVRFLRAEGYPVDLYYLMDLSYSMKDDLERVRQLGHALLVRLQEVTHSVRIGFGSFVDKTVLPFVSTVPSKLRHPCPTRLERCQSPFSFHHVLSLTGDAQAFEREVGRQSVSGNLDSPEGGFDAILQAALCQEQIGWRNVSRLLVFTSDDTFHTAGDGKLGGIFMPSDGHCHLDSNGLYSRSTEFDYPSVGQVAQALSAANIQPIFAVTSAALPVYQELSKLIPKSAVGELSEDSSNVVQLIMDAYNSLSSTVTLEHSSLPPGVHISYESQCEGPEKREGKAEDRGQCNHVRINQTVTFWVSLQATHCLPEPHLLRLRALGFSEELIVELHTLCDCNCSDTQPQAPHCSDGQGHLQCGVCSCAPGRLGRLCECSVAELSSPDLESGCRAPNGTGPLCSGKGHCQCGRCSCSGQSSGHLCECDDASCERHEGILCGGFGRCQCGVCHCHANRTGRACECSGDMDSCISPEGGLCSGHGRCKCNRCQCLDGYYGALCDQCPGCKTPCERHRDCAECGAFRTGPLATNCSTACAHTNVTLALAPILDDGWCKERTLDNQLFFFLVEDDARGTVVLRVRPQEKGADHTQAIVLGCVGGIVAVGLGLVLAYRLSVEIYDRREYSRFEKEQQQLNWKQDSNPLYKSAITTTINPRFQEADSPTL
The series is described as follows: Ex vivo integrin inhibitory activity: MAdCAM-1 binding inhibition rate of lymphocytes in plasma (flow cytometry). The class given is cell-based. As to conditions: for IC90: CD4 positive. Here is the method:
[MAdCAM-1 Binding Inhibition Rate (PD) of Lymphocytes in Plasma and IC90, IC50]
The MAdCAM-1 binding rate of lymphocytes in plasma was measured using a validated measurement method using the obtained blood samples, and the MAdCAM-1 binding inhibition rate of lymphocytes in plasma was calculated using Excel. Specifically, 5 μL of an 80 mM MnCl2 solution was added to 90 μL of heparinized blood and incubated at room temperature for 10 minutes. A volume of 5 μL of 200 μg/mL recombinant human MAdCAM-1/Fc (R&D Systems) was added to make a total volume of 100 μL, and the mixture was incubated at room temperature for 30 minutes. Subsequently, 1900 μL of BD Phosflow Lyse/Fix Buffer 5× (BD Biosciences) was added, and hemolysis and fixation were performed at 37° C. for 10 minutes. After centrifugation for 5 minutes, the supernatant was removed, and 2000 μL of RPMI-1640 medium supplemented with 10% inactivated fetal bovine serum (hereinafter referred to as medium) was added. After centrifugation for 5 minutes, the supernatant was removed and washed. After washing again with the medium, 50 μL of Brilliant Stain Buffer (BD Biosciences), 1.25 μL of MAdCAM-1 FITC (Hycult Biotech), 5 μL of CD4 PE (BD Biosciences), 2.5 μL of CD45RO APC (UCHL1) (BioLegend), 5 μL of CD3 BV421 (SK7) (BioLegend), and 2.5 μL of CD45 BV510 (HI30) (BioLegend) were added, and the mixture was incubated for 30 minutes. After washing with Stain Buffer (BSA) (BD Biosciences), the percentage of MAdCAM-1-positive cells among CD3-positive CD4-positive cells was measured using flow cytometry.
The percentage of MAdCAM-1-positive cells among CD3-positive CD4-positive cells was calculated by subtracting each measured value from the measured value when MAdCAM-1/Fc was not added as a control. The percentage of MAdCAM-1-positive cells among CD3-positive CD4-positive cells before administration of Compound (1) or placebo was set as 0% inhibition, and the MAdCAM-1 binding inhibition rate at each blood collection time point was obtained. Furthermore, the concentration IC50 that causes 50% binding inhibition and the concentration IC90 that causes 90% binding inhibition were calculated.
The MAdCAM-1 binding inhibition rate (PD) of lymphocytes in plasma was evaluated using collected blood, and the correlation with the plasma concentration (PK) of Compound (2) was plotted (FIG. 5).

Converted amounts (≈) assume the structure as drawn. Like-named read-outs stand apart in the source and are kept apart here.

The values below come from patent US20260284086A1, “PHARMACEUTICAL COMPOSITION FOR TREATMENT OF INFLAMMATORY BOWEL DISEASE” (EA PHARMA CO., LTD., priority 2023, published 2026).

`Cc1cc(=O)n(-c2ccc(C[C@H](NC(=O)c3cc(F)c(NS(=O)(=O)c4ccc(NC(=O)C(C)(C)C)cc4)cc3F)C(=O)O)cn2)c(=O)n1C` [Compound (2)]: the “plasma concentration of Compound (2)” value in series [1] (0.5 h post-dose) and in series [1] (1 h post-dose) was “Below quantitation limit” in each case. Moreover, the “increase of plasma concentration (trough value) after 24 hours, Day 10 of repeated vs single-dose administration” value in series [2] (Compound (1) 400 mg L-SEDDS once daily) is recorded as “more than threefold”. Moreover, the “trough concentration relative to IC90” value in series [2] (once-daily administration of L-SEDDS (Compound (1) 400 mg)) is recorded as “maintained above IC90 (6.9 mg/mL) from the second day of administration”; in series [3] (twice-daily administration of C-SEDDS (Compound (1) 200 mg)), “maintained above IC90 (6.9 mg/mL) from the third day of administration”. In series [3] (Compound (1) 200 mg C-SEDDS twice daily), the “increase of plasma concentration (trough value) 12 hours after the second dose on Day 10 of repeated vs single-dose administration” value was “about eightfold”. Further, in series [4], the “estimated Cmax on the 10th day of repeated administration” value is reported as 3.63 ng/mL. Moreover, in series [5], the “predicted trough value (200 mg twice daily) relative to measured trough value (400 mg once daily)” value was “about twice”. Besides, the IC90 is 6.9 ng/mL (≈ 9.88 nM) in series [6] (ex vivo, blood of healthy adult males given Compound (1), read-out: IC90 (plasma concentration that causes 90% MAdCAM-1 binding inhibition)) and 6.9 ng/mL (≈ 9.88 nM) in series [6] (read-out: IC90). For the same compound, the IC50 in series [6] (ex vivo, blood of healthy adult males given Compound (1), read-out: IC50 (plasma concentration that causes 50% MAdCAM-1 binding inhibition) (converted)) is 2.72 nM. Further, the “correlation of plasma concentration (PK) with MAdCAM-1 binding inhibition rate (PD)” value in series [6] (ex vivo, collected blood, FIG. 5) is “correlated”.
